What follows are compounds tested against human PAD4 (hPAD4) (Homo sapiens (Human), UniProt Q9UM07) (assay: RFMS Human PAD4 Functional Assay 1). Settings: RFMS assay 1; 5 nM hPAD4, 250 μM BAEE substrate, 50 μM calcium, 37° C.
Format: biochemical
Description: RFMS Human PAD4 Functional Assay 1:
Compounds were solubilized in 100% DMSO to achieve all) mM compound concentration. Compound stock solutions were stored at RT. A series of dilutions were prepared in DMSO and mixed 8 times with 20 μL mixing volume. Final top concentration of compound in the assay is 50 μM. Final assay conditions were as follows: • Reaction volume: 26 μl • Assay buffer: 25 mM hepes, pH 7.5, 5 mM NaCl, 1 mM DTT, 0.2 mg/ml BSA, 0.01% CHAPS, 50 μM Calcium, and 5 μM TPEN • Final concentrations: 5 nM hPAD4 enzyme, 250 μM BASE, and 0.5% DMSO • Total incubation time: 30 mins compound and enzyme preincubation at 37° C., 90 min enzyme/substrate reaction, 30 min reaction with phenyl glyoxal at 37° C. • Stop solution: 40 μl 5% TCA in ACN
0.13 μL of compound solution was added to 13 μL of 10 nM PAD4 in assay buffer. After 30 min 13 μl of 500 μM of BAEE was added in 25 mM hepes, pH 7.5, 5 mM NaCl, 1 mM DTT, 0.2 mg/ml BSA, 0.01% CHAPS, 50 μM Calcium, 5 μM TPEN was added and the reaction incubated for 90 min at 37° C. The enzymatic reaction was quenched by addition of 15 μl of 6.1N TCA, 100% Final Concentration is 20%, 35 μl of 8.5 mM phenyl glyoxal (final concentration 4 mM) is then added and the reaction is incubated for 30 min at 37° C.
After 30 minutes the plates are spun down to remove all precipitate. The enzyme reaction was quenched with an equal volume of methanol containing internal standard (modified citrulline). Samples were loaded onto the Rapid Fire RF300 system (Agilent) wherein they were first sipped for 1000 ms and then directly loaded to a C18 separations cartridge using a mixture of acetonitrile containing 0.01% formic acid for 3000 ms desalting. The flow rate of the mobile phase was 1.5 ml/min. Once the samples were eluted from the cartridge, a mobile phase of acetonitrile containing 0.01% formic acid was used to move the samples into the mass spectrometer for 4000 ms at a flow rate of 1.25 ml/min/Sciex API5500 triple quadrupole mass spectrometer (Applied Biosystems) equipped with ESI was used to analyze the peptidyl citrulline and internal standard ions.
MRM transition of product and internal standard were monitored at m/z 424.5 to 350.4 and m/z 293 to 247 respectively. The dwell time for each transition was set at 200 ms, and the ESI voltage was used at 5500 with a source temperature of 400° C. Extracted ion peaks for each transition were integrated using the Rapid Fire Integrator software. Peak area of analyte was normalized with internal standard.).

human PAD4 (hPAD4), sequence (Q9UM07 whole entry): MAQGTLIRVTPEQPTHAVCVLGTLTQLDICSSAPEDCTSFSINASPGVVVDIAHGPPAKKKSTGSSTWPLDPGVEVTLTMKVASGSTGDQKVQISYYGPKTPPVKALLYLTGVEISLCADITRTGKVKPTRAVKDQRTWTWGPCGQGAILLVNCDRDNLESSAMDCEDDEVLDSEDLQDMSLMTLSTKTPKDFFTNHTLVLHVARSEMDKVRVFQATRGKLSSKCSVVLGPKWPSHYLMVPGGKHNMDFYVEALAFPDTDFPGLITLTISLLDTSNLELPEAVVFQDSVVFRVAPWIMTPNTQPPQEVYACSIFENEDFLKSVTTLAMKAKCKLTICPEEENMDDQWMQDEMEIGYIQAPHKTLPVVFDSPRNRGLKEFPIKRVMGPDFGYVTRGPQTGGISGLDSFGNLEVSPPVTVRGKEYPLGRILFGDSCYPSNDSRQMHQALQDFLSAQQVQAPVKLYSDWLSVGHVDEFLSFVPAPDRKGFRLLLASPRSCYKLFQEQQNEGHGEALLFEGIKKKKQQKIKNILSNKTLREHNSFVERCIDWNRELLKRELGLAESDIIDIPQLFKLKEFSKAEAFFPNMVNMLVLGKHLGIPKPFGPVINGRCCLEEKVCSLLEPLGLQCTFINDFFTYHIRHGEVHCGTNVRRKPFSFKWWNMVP

| IC50 | Compound |
| --- | --- |
| 0.29 µM | Cc1c(-c2cc3cccc(C4CCN(C(=O)C5CC(O)C5)CC4)c3n2CC2CC2)nn2cc(C(=O)N3CCC[C@@H](N)C3)cc(F)c12 (mixture of isomers) [Example 420, (R)-(3-Aminopiperidin-1-yl)(2-(1-(cyclopropylmethyl)-7-(1-(3-hydroxycyclobutane-1-carbonyl)piperidin-4-yl)-1H-indol-2-yl)-4-fluoro-3-methylpyrazolo[1,5-a]pyridin-6-yl)methanone] |
| 0.08 µM | Cc1c(-c2cc3cccc(C4CCN(C(=O)C5CC(O)(C(F)(F)F)C5)CC4)c3n2CC2CC2)nn2cc(C(=O)N3C[C@H](N)C[C@@H](F)C3)cc(F)c12 (mixture of isomers) [Example 421, ((3R,5R)-3-Amino-5-fluoropiperidin-1-yl)(2-(1-(cyclopropylmethyl)-7-(1-(3-hydroxy-3-(trifluoromethyl)cyclobutane-1-carbonyl)piperidin-4-yl)-1H-indol-2-yl)-4-fluoro-3-methylpyrazolo[1,5-a]pyridin-6-yl)methanone] |
| 0.1 µM | Cc1c(-c2cc3cccc(C4CCN(C(=O)C5CCCO5)CC4)c3n2CC2CC2)nn2cc(C(=O)N3C[C@H](N)C[C@@H](F)C3)ccc12 (mixture of isomers) [Example 463, ((3R,5R)-3-amino-5-fluoropiperidin-1-yl)(2-(1-(cyclopropylmethyl)-7-(1-(tetrahydrofuran-2-carbonyl)piperidin-4-yl)-1H-indol-2-yl)-3-methylpyrazolo[1,5-a]pyridin-6-yl)methanone] |
| 0.13 µM | Cc1c(-c2cc3cccc(C4CCN(C(=O)C5CC(O)C5)CC4)c3n2CC2CC2)nn2cc(C(=O)N3CCC[C@@H](N)C3)ccc12 (mixture of isomers) [Example 465, (R)-(3-aminopiperidin-1-yl)(2-(1-(cyclopropylmethyl)-7-(1-(3-hydroxycyclobutane-1-carbonyl)piperidin-4-yl)-1H-indol-2-yl)-3-methylpyrazolo[1,5-a]pyridin-6-yl)methanone] |

The next lines start with the compound.

| Compound | IC50 |
| --- | --- |
| Cc1c(-c2cc3cccc(C4CCN(C(=O)C5CC(O)(C(F)(F)F)C5)CC4)c3n2CC2CC2)nn2cc(C(=O)N3CCC[C@@H](N)C3)cc(F)c12 (mixture of isomers) [Example 422, (R)-(3-Aminopiperidin-1-yl)(2-(1-(cyclopropylmethyl)-7-(1-(3-hydroxy-3-(trifluoromethyl)cyclobutane-1-carbonyl)piperidin-4-yl)-1H-indol-2-yl)-4-fluoro-3-methylpyrazolo[1,5-a]pyridin-6-yl)methanone] | 0.4 µM |
| Cc1c(-c2cc3cccc(C4CCN(C(=O)C5CC(O)(C(F)(F)F)C5)CC4)c3n2CC2CC2)nn2cc(C(=O)N3CCC[C@@H](N)C3)ccc12 (mixture of isomers) [Example 456, (R)-(3-aminopiperidin-1-yl)(2-(1-(cyclopropylmethyl)-7-(1-(3-hydroxy-3-(trifluoromethyl)cyclobutane-1-carbonyl)piperidin-4-yl)-1H-indol-2-yl)-3-methylpyrazolo[1,5-a]pyridin-6-yl)methanone] | 0.03 µM |
| Cc1c(-c2cc3cccc(C4CCN(C(=O)C5CCCCO5)CC4)c3n2CC2CC2)nn2cc(C(=O)N3C[C@H](N)C[C@@H](F)C3)ccc12 (mixture of isomers) [Example 458] | 0.08 µM |
| Cc1c(-c2cc3cccc(C4CCN(C(=O)C5CCCO5)CC4)c3n2CC2CC2)nn2cc(C(=O)N3CCC[C@@H](N)C3)ccc12 (mixture of isomers) [Example 462, ((R)-3-aminopiperidin-1-yl)(2-(1-(cyclopropylmethyl)-7-(1-(tetrahydrofuran-2-carbonyl)piperidin-4-yl)-1H-indol-2-yl)-3-methylpyrazolo[1,5-a]pyridin-6-yl)methanone] | 0.03 µM |
